Test results as given in patent US11708318B2, “Polymorphic forms of RAD1901-2HCL” (Radius Pharmaceuticals, Inc., priority 2017, dated 2023).
“Also recorded” adds a separate entry of the source.

Key:
estrogen receptor (ER) = target: T1, estrogen receptor (ER) (Homo sapiens, UniProt P03372); details: cited from earlier work
T1 sequence (P03372 1-595): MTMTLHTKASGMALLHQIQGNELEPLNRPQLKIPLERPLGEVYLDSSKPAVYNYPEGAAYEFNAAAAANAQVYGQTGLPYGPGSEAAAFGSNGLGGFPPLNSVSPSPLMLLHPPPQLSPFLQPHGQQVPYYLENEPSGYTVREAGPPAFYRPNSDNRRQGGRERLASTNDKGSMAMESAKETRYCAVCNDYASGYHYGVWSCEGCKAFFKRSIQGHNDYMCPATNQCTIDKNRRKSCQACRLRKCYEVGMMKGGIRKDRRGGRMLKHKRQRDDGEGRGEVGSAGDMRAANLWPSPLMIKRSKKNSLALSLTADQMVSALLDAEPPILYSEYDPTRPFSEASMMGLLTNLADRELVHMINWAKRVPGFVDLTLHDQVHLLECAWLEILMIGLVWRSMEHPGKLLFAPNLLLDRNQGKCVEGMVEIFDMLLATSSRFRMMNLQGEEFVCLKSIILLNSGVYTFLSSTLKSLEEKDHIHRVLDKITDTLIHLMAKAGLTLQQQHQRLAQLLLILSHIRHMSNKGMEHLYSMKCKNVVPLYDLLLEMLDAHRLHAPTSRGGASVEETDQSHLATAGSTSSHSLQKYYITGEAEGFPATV

[1] = Storage at elevated temperature/humidity, analysed by XRPD; format: physicochemical
[2] = Gravimetric Vapour Sorption (GVS), with XRPD of the recovered sample; format: physicochemical
Method: Sorption isotherms were obtained using a SMS DVS Intrinsic moisture sorption analyzer, controlled by DVS Intrinsic Control software v1.0.1.2 (or v 1.0.1.3). The sample temperature was maintained at 25° C. by the instrument controls. The humidity was controlled by mixing streams of dry and wet nitrogen, with a total flow rate of 200 ml/min. The relative humidity was measured by a calibrated Rotronic probe (dynamic range of 1.0-100% RH), located near the sample. The weight change, (mass relaxation) of the sample as a function of % RH was constantly monitored by the microbalance (accuracy ±0.005 mg).
A sample (e.g., 20 mg) was placed in a tared mesh stainless steel basket under ambient conditions. The sample was loaded and unloaded at 40% RH and 25° C. (typical room conditions). A moisture sorption isotherm was performed as outlined below (2 scans giving 1 complete cycle). Standard isotherms were performed at 25° C. at 10% RH intervals over a 0-90% RH range. Data analysis was carried out using Microsoft Excel using DVS Analysis Suite v6.2 (or 6.1 or 6.0).
In a cycle of 2 scans, the first scan was performed with adsorption of 40-90% RH, followed by a second scan with desorption of 90-0% RH and adsorption of 0-40% RH, with intervals of 10% RH, at 25° C. with stability dm/dt of 0.002% ° C./min. The sorption time was 6 hr time out.
The sample was recovered after completion of the isotherm and re-analyzed by XRPD. Custom moisture sorption methods were also performed at 25° C. at fixed % RH intervals over a 0-95% RH range, with the purpose to fully understand the sorption/desorption behavior of the compound under elevated conditions.
To further explore the humidity behavior of Sample 1 (Form 1) upon exposure to high RH (>90%), custom GVS experiments were designed and carried out. Initially, the sample was treated by holding at 90 and then 95% RH for ˜12 hours to see if hydrate formation could be observed (HighRH method of Steps 1 and 2 of Table 2, FIGS. 6C-6D).
To test the stability of the hydrated state, GVS method HighRH_Desorp_3 was designed with a desorption step and subsequent adsorption (see Table 2 with steps 1-4, FIGS. 6E-6F).
Finally, to ensure complete conversion to the anhydrous and hydrated forms, a GVS experiment was designed to increase both the length of the desorption step at 0% RH, and the adsorption step at 95% RH, respectively (Table 3). Based on the weight stabilization observed in the kinetic plots for Sample 1 in HighRH and HighRH_Desorp_3 methods discussed above (FIGS. 6D and 6F), a holding time of 800 mins at 0% RH and 1600 mins at 95% RH were chosen. A double cycle was also recorded for this experiment to observe whether the sample would return to Form 1 or form a mixed anhydrous/hydrated species (see Table 3, FIGS. 6G-6H).

[3] = Storage at elevated temperature/humidity, analysed by XRPD; format: physicochemical; details: 1 week
Method: Samples 1 and 2 were characterized by XRPD at various conditions. XRPD patterns were collected for the samples at ambient condition as the samples were provided; at variable temperature (VT-XRPD); at variable humidity (VH-XRPD); after the samples were exposed to 40° C./75% RH for 1 week and 25° C./97% RH for 1 week, respectively; and after a GVS measurement wherein the samples were exposed to 0-90% RH. Samples 1 and 2 were also characterized by ^1H NMR, TGA, DSC, KF, IC, GVS (exposed to 0-90% RH), PLM, SEM, and HPLC (Table 5).

[4] = Variable humidity XRPD (VH-XRPD); format: physicochemical
Method: Samples run under non-ambient conditions were prepared by gently packing into a cavity, cut into a silicon wafer to obtain a flat surface and mounted onto a humidity stage with an Ansyco controller and humidity sensor positioned directly next to the sample holder. The data were collected at 298.15 K with water temperature of 35.0° C., in an angular range of 3 to 31° 2θ, with a step size of 0.025° 2θ, a collection time of 2.0 sec/step, and a collection time at each % RH was 41 min 28 sec. X-Ray Powder Diffraction (XRPD) patterns were collected at variable humidity values from 0 to 95% RH, based upon the humidity behavior of each compound observed during GVS experiments (described herein). For each Variable Humidity X-Ray Powder Diffraction (VH-XRPD) experiment performed, the % RH values selected are provided alongside the relevant experimental result. Full tables of detailing the % RH value at each collection point and the associated delay time at each value are provided in Tables 10-12. To fully characterize the polymorphic behavior of Samples 1 and 2 at variable humidity, and to collect reference XRPD patterns for the ‘pure’ anhydrous Form 1 and Form 2 material, and ‘pure’ hydrated Form 3 material, Variable Humidity (VH) XRPD experiments were conducted on Samples 1 and 2. Initially, VH-XRPD experiments were conducted using Sample 1, and XRPD diffractograms were collected at selected humidity values, in line with those collected during GVS experiments (see FIGS. 6E-6F). XRPD diffractograms were collected initially at ambient RH, then collected over 24 hours at ˜95% RH and finally collected during desorption steps to 0% RH and over 10 hours at 0% RH (see FIG. 4C). […]

CCNCCc1ccc(CN(CC)c2cc(OC)ccc2[C@@H]2CCc3cc(O)ccc3C2)cc1 [RAD1901]
Selectivity of binding to the estrogen receptor (ER) (estrogen receptor (ER)): good selectivity

CCNCCc1ccc(CN(CC)c2cc(OC)ccc2[C@@H]2CCc3cc(O)ccc3C2)cc1.Cl.Cl [Lyophilization in water]
XRPD post storage at 25° C./97% RH (10 days) ([1]; 25° C./97% RH): Consistent with Form 3 | XRPD post storage at 40° C./75% RH (10 days) ([1]; 40° C./75% RH): Consistent with Form 3

CCNCCc1ccc(CN(CC)c2cc(OC)ccc2[C@@H]2CCc3cc(O)ccc3C2)cc1.Cl.Cl [Sample 2]
Hygroscopicity (GVS) ([2]; 0-90% RH): hygroscopic | XRPD post GVS (uptake 0-90% RH) ([2]; after exposure to 0-90% RH): mixture of Form 2 and Form 3; also recorded: Mixture of form 2 and 3 | XRPD after storage at 25° C./97% RH for 1 week ([3]; 25° C./97% RH): Form 3 (FIGS. 5B and | XRPD after storage at 40° C./75% RH for 1 week ([3]; 40° C./75% RH): Form 3 (FIG. 5B) | VH-XRPD at 0% RH ([4]; 0% RH): 5E). Form 2 at 0% RH | VH-XRPD at high RH (>90%) ([4]; >90% RH (92-93% RH recorded)): conversion toward the hydrated state; also recorded: Conversion to Form 3
